Source: patent publication US20140017336A1, “CO-ADMINISTRATION OF ARSENIC COMPOUNDS AND ANTI-HERPES VIRUS ANTI-VIRALS” (priority 2011, published 2014)

Test system: EBV immediate early protein Zta
Test: Zta immunofluorescence in CNE1<EBV-BX1> cells
Assay type: cell-based, Epstein-Barr virus
Conditions: 1 nM ATO with or without 40 μM GCV, 3 days
Description: A549 cells were plated on 8-chambered Lab-Tek slides at 3×10^4 cells per well; chemical treatment began 24 hours after plating. At specified time points, cells were rinsed twice with PBS and fixed in 4% paraformaldehyde (freshly diluted from 16%, Electron Microscopy Science, Hatfield, Pa.) for 10 min at room temperature. The cells were then rinsed twice with PBS and permeabilized with 0.5% Triton™ X100 (Sigma) in PBS for 15 min at room temperature. Primary antibodies were applied at specified concentrations overnight in a humidified chamber at 4° C. Following 3 rinses in PBS, secondary antibodies were diluted 1:500 and applied for 1 hour at room temperature. The chambers were removed and Vectashield® with DAPI (Vector Laboratories, Burlingame, Calif. #H1200) was applied with cover slip mount. […]
To more specifically investigate the effects of disruption of PML NB on ZTA expression, siRNA directed against the PML transcript or a control siRNA were transfected into CNE1<BX1> cells. At day 4 post transfection, PML and Zta expression were analyzed using immunofluorescence. […] EBV infected and uninfected parental CNE1 cells were transfected with siRNA against the PML transcript or control siRNA cultured in the presence or absence of 40 μM GCV for 7 days and cells were counted in order to investigate whether disruption of PML NBs using siRNA induced GCV susceptibility. […]

Substance: arsenic trioxide [ATO]
- number of Zta positive cells: increased the number of cells that were Zta positive
